Each block holds one molecule with its values, some of them ahead of it. The source made the active and inactive calls.
Tests used:
[1] = target: T1, Serine/threonine-protein phosphatase (Candida dubliniensis (strain CD36 / CBS 7987 / NCPF 3949 / NRRLY-17841) (Yeast), UniProt B9W6M3); assay: Fluorescence Cell-Based Secondary Assay to Identify Inhibitors of Calcineurin. [Related pubchem assays (depositor defined):AID1979, AID2007]; assay type: functional
T1 sequence (B9W6M3 whole entry): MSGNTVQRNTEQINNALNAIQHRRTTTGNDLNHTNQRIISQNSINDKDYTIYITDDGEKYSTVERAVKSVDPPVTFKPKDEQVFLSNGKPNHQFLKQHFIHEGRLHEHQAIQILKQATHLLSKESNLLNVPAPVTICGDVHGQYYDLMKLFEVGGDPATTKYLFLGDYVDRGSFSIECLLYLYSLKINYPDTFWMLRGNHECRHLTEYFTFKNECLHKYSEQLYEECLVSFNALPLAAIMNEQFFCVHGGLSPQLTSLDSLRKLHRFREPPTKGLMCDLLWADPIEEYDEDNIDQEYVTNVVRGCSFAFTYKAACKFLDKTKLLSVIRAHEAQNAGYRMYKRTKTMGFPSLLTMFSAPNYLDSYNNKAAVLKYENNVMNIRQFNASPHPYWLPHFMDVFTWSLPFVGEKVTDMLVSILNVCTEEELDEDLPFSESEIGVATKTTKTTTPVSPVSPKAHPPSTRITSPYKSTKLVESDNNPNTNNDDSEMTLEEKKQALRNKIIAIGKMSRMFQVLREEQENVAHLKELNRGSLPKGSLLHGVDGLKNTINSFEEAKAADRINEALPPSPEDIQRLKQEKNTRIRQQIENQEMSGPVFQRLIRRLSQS

Large T antigen = Large T antigen (Simian virus 40, UniProt P03070); assay type: functional, Betapolyomavirus macacae;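 note: Confirmatory-stage PubChem screen for compounds that inhibit SV40 T antigen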
Sequence of Large T antigen (P03070 whole entry): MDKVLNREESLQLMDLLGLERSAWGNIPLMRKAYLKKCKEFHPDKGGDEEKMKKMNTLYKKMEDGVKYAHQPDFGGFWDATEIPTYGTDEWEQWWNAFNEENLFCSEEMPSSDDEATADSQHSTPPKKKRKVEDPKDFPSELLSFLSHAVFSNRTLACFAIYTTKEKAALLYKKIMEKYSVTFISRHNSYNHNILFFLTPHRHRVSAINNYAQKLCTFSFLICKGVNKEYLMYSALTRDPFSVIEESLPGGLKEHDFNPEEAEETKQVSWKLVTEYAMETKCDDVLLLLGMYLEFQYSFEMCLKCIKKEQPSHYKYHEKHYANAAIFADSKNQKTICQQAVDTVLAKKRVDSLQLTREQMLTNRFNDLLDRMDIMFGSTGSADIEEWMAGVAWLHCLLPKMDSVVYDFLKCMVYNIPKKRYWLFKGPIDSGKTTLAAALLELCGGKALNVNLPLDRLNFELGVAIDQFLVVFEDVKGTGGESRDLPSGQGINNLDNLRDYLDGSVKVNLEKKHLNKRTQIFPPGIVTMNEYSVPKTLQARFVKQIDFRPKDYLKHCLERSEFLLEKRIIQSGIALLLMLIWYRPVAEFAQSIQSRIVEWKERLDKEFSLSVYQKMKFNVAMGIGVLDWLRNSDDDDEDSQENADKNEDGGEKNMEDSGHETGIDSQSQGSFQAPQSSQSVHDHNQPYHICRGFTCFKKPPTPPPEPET

[2] = target: T2, Intestinal-type alkaline phosphatase (Mus musculus, UniProt P24822); assay: PubChem AID 488785; assay type: functional
T2 sequence (P24822 whole entry): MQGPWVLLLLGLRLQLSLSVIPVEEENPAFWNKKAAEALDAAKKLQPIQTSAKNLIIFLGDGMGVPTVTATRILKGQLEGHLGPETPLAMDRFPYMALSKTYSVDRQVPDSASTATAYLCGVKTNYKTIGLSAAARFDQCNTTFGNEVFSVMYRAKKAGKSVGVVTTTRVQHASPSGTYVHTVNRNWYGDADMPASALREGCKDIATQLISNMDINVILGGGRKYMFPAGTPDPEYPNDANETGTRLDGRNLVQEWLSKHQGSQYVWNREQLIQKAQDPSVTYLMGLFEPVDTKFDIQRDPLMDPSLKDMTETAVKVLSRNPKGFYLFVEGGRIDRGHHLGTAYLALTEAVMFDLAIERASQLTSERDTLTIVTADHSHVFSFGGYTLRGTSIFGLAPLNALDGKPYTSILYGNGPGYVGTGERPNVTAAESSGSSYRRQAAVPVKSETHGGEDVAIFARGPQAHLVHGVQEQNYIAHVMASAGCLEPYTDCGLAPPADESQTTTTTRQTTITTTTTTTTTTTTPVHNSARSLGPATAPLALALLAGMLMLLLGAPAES

[3] = target: T3, Alkaline phosphatase, tissue-nonspecific isozyme (Homo sapiens, UniProt P05186); assay: TNAP enzyme inhibition by screening hits, dose response, selectivity assay for mouse IAP inhibitor project, biochemical, human TNAP, uHTS hits (AID 488906); assay type: functional
T3 sequence (P05186 whole entry): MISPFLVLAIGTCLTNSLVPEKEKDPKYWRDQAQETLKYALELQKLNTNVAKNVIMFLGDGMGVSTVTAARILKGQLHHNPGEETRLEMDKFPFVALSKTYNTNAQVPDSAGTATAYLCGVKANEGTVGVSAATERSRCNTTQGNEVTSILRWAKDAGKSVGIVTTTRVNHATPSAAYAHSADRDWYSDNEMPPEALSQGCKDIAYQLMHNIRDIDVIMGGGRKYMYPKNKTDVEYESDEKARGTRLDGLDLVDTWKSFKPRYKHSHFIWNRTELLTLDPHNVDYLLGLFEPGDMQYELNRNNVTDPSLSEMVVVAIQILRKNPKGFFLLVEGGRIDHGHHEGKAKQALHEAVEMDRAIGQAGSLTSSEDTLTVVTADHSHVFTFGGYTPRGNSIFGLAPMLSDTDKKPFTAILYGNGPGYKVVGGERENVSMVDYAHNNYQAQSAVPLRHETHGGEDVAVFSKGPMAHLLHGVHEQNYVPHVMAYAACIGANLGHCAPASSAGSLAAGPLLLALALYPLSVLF

[4] = target: T4, Intestinal-type alkaline phosphatase (Homo sapiens, UniProt P09923); assay: inhibition of human intestinal alkaline phosphatase – biochemical, dose response (AID 488876); assay type: functional
T4 sequence (P09923 whole entry): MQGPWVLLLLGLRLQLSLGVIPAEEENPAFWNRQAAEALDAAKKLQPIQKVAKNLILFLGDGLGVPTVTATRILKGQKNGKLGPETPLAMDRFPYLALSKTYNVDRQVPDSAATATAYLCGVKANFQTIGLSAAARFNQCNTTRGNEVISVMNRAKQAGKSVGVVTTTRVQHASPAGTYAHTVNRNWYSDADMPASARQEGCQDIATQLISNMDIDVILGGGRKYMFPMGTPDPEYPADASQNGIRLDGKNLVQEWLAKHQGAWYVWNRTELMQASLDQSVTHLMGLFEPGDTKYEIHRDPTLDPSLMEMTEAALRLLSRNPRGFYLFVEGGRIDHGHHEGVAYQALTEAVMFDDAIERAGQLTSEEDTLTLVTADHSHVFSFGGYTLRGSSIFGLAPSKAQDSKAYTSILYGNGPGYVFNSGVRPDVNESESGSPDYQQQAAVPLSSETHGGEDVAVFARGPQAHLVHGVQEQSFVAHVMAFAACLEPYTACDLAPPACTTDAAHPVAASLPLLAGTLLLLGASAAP

[5] = target: T5, Kappa-type opioid receptor (Homo sapiens, UniProt P41145); assay: SAR analysis of small molecule agonists of the kappa opioid receptor via a luminescent beta-arrestin assay. [Related pubchem assays (depositor defined):AID1777, AID1786, AID1966, AID2133, AID2136, AID2348, AID2352, AID2357, AID2359, AID2370, AID2420, AID2478, AID2491, AID2492, AID2493, AID2497, AID2498, AID2500, AID449737, AID488822, AID488842]; assay type: functional
T5 sequence (P41145 whole entry): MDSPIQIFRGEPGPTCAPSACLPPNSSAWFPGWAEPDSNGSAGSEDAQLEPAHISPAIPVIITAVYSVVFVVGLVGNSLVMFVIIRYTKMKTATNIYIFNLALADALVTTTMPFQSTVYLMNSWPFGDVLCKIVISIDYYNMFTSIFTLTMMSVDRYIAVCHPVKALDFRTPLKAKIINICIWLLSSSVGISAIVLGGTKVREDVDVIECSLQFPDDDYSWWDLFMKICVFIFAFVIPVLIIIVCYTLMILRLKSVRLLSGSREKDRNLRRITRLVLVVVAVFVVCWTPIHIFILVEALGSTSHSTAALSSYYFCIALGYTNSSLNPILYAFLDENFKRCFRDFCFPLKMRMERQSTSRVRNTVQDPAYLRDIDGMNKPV

Mu-type opioid receptor [6] = target: T6, Mu-type opioid receptor (Homo sapiens, UniProt P35372); assay: mu opioid receptor activators, image-based, SAR follow-up (AID 2352); assay type: functional
T6 sequence (P35372 whole entry): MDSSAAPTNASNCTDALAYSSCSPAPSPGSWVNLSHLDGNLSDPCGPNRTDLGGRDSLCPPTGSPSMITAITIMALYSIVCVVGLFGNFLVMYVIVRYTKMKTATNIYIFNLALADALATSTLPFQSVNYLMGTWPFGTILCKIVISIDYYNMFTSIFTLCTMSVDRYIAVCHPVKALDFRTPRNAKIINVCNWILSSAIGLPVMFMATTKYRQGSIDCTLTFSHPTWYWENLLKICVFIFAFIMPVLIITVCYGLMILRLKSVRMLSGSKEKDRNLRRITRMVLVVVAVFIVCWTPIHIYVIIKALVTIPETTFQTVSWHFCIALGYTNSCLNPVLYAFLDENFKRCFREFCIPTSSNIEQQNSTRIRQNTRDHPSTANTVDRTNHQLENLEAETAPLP

[7] = target: T7, Delta-type opioid receptor (Homo sapiens, UniProt P41143); assay: DOR agonists, SAR follow-up, image-based (AID 2370); assay type: functional
T7 sequence (P41143 whole entry): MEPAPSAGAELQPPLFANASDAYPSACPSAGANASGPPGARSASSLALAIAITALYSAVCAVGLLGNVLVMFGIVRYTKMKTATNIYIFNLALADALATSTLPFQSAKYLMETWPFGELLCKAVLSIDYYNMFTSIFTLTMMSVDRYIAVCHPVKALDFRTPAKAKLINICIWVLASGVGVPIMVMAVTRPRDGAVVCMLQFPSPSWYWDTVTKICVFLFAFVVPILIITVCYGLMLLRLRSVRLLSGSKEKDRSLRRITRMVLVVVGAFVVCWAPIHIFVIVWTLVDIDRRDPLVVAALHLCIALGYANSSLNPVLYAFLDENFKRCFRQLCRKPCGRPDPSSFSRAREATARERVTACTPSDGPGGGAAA

[8] = target: T5, Kappa-type opioid receptor; assay: kappa opioid receptor blockers, image-based, SAR follow-up (AID 2348); assay type: functional
Mu-type opioid receptor [9] = target: T6, Mu-type opioid receptor; assay: mu opioid receptor blockers – image-based, SAR follow-up (AID 2420); assay type: functional;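 note: compounds added before stimulation of receptor with agonist DAMGO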
[10] = target: T5, Kappa-type opioid receptor; assay: kappa opioid receptor activation potency – imaging, image-based, SAR follow-up (AID 2359); assay type: functional
[11] = target: T7, Delta-type opioid receptor; assay: delta opioid receptor blockers – image-based, SAR follow-up (AID 2357); assay type: functional
[12] = target: T8, Voltage-gated N-type calcium channel alpha-1B subunit/Amyloid beta A4 precursor protein-binding family A member 1 (Homo sapiens, UniProt Q00975+Q02410); assay type: protein assay
[13] = target: T8, Voltage-gated N-type calcium channel alpha-1B subunit/Amyloid beta A4 precursor protein-binding family A member 1; assay type: protein assay; remark: listed apart in the source
[14] = target: Induced myeloid leukemia cell differentiation protein Mcl-1 (Homo sapiens, UniProt Q07820); assay type: functional
Sequence of Induced myeloid leukemia cell differentiation protein Mcl-1 (Q07820 whole entry): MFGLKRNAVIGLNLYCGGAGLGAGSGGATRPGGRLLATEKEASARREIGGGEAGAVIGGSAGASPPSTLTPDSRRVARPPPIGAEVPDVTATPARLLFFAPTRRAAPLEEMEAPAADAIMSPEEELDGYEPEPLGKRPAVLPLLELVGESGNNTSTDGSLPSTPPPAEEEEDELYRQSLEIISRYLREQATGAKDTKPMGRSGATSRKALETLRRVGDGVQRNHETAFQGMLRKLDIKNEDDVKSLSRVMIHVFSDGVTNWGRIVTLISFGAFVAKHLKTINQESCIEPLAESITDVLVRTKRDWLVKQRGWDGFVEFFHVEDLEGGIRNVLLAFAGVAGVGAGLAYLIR

[15] = target: T9, Apoptotic protease-activating factor 1 (Homo sapiens, UniProt O14727); assay: activation of Apaf-1 mediated apoptosis – fluorescent, uHTS hits, dose response (AID 588554); assay type: functional
T9 sequence (O14727 whole entry): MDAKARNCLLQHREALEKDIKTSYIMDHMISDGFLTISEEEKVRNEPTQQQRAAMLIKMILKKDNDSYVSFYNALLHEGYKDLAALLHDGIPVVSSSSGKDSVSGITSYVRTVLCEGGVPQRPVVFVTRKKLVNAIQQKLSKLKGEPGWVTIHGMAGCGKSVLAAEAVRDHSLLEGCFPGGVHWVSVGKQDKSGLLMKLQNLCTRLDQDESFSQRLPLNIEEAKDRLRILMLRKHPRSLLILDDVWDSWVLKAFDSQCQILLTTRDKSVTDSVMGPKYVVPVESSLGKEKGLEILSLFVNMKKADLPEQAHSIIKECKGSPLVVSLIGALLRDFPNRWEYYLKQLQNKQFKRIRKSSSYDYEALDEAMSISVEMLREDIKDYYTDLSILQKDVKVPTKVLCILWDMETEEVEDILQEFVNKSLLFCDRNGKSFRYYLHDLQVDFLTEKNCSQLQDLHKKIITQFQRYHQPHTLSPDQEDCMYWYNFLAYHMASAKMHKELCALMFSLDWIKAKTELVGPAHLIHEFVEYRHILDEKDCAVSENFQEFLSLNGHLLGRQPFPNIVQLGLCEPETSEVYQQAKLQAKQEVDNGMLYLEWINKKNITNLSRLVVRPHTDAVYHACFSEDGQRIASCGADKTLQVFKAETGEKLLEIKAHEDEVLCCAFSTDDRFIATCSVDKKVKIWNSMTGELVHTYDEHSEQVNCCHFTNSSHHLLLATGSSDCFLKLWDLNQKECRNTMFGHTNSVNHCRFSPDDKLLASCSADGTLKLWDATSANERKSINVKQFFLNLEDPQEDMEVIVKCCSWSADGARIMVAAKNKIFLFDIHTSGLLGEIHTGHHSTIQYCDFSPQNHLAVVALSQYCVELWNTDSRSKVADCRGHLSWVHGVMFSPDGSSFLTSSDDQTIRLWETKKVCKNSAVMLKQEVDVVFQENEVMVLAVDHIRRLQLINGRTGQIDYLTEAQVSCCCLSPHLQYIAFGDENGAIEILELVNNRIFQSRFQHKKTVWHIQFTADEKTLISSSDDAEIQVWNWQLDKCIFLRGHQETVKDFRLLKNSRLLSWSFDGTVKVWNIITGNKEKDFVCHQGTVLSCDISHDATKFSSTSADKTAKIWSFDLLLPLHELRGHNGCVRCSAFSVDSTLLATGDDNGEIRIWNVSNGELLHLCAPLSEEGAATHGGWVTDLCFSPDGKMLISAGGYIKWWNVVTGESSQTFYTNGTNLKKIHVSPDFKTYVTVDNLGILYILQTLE

[16] = target: T10, Carboxy-terminal domain RNA polymerase II polypeptide A small phosphatase 1 (Homo sapiens, UniProt Q9GZU7); assay: CTDSP1 inhibitors, concentration-response, biochemical, absorbance readout, ultra-high-throughput screen actives (AID 540297); assay type: functional
T10 sequence (Q9GZU7 whole entry): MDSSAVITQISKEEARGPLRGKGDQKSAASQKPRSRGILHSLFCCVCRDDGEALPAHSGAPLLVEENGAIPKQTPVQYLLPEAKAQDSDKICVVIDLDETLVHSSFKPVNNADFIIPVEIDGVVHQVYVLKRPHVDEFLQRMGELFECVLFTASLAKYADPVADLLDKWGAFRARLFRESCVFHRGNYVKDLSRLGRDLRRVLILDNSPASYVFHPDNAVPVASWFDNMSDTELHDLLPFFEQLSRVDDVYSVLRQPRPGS

[17] = target: DNA (cytosine-5)-methyltransferase 1 (Homo sapiens, UniProt P26358); assay: inhibition of DNA methylation by DNMT1 – biochemical, fluorescent molecular beacon, confirmation (AID 602386); assay type: functional
[18] = target: T11, Small ubiquitin-related modifier 1 (Homo sapiens, UniProt P63165); assay: SUMO1 protein interaction blockers, potency – biochemical, fluorescence polarization, uHTS hits, dose response (AID 624382); assay type: functional; conditions: read-out: IC50_Mean
T11 sequence (P63165 whole entry): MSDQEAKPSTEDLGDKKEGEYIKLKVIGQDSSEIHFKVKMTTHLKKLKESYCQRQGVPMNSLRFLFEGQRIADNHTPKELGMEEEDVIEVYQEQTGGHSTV

[19] = target: T11, Small ubiquitin-related modifier 1; assay: SUMO1 protein-protein binding blockers, potency – biochemical, FRET, dose response (AID 624383); assay type: functional; conditions: read-out: IC50_Mean
[20] = target: T12, Mannose-6-phosphate isomerase (Homo sapiens, UniProt P34949); assay: MPI inhibition at elevated mannose 6-phosphate – biochemical, fluorescence intensity, high mannose 6-phosphate, primary screen (AID 1220)
T12 sequence (P34949 whole entry): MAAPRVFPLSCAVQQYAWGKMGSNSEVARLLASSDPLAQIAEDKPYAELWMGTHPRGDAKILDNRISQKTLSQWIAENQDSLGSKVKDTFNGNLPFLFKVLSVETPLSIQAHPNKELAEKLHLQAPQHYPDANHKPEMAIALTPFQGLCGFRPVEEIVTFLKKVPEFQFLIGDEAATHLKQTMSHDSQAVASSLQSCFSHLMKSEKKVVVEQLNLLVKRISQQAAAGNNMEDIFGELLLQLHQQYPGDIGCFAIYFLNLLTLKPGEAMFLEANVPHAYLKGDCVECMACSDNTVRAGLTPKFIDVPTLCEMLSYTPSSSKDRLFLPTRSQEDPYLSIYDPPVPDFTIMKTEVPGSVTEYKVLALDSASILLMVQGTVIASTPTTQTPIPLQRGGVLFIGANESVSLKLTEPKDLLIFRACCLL

[21] = target: T12, Mannose-6-phosphate isomerase; assay: phosphomannose isomerase inhibition – biochemical, fluorescence intensity, confirmation (AID 1535)
Phosphomannomutase 2 = Phosphomannomutase 2 (Homo sapiens, UniProt O15305); assay: Counter screen SAR assay for PMM2 inhibitors via a fluorescence intensity assay. [Related pubchem assays (depositor defined):AID1545, AID1574]
Sequence of Phosphomannomutase 2 (O15305 whole entry): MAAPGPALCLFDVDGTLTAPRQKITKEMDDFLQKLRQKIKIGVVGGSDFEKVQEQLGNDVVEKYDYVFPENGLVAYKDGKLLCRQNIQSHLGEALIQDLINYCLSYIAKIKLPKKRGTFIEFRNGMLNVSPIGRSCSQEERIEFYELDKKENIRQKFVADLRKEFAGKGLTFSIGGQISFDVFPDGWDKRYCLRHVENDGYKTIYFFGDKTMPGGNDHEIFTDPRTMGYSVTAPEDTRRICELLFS

[22] = target: Eukaryotic translation initiation factor 4E (Mus musculus, UniProt P63073); assay: blockers of eIF4G binding by eIF4E – biochemical, TR-FRET, dose response (AID 855); assay type: functional;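 note: potency for disrupting eIF4E binding to eIF4GI seen as loss of FRET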
Sequence of Eukaryotic translation initiation factor 4E (P63073 whole entry): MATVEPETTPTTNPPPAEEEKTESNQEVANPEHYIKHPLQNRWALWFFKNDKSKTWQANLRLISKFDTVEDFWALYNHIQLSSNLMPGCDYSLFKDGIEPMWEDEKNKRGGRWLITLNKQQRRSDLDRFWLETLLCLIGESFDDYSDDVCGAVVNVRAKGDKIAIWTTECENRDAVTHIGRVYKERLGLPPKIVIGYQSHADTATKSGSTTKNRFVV

[23] = target: T2, Intestinal-type alkaline phosphatase; assay: PubChem AID 488874; assay type: functional
[24] = target: T4, Intestinal-type alkaline phosphatase; assay: human intestinal alkaline phosphatase activators, dose response, biochemical, luminescence, uHTS hits (AID 463120); assay type: functional
[25] = target: T4, Intestinal-type alkaline phosphatase; assay: activation of human intestinal alkaline phosphatase – biochemical, luminescent, uHTS hits, set 2, dose response (AID 488817); assay type: functional;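 note: potency of activators that raise enzyme activity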
[26] = target: T3, Alkaline phosphatase, tissue-nonspecific isozyme; assay: activation of tissue-nonspecific alkaline phosphatase – biochemical, TNAP isozyme, human IAP uHTS hits, selectivity assay for human IAP activator project, dose response (AID 488886); assay type: functional;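 note: potency of compounds raising TNAP activity as a selectivity check on IAP activators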

- EC50 [1]: > 285 µM (inactive)
Compound: Nc1nccnc1C(=O)Nc1nnc(SCc2ccc(Cl)cc2)s1

- EC50 [5]: > 10 µM (inactive)
- EC50 (Mu-type opioid receptor [6]): > 32 µM (inactive)
- EC50 [7]: > 32 µM (inactive)
- IC50 [8]: > 32 µM (inactive)
- IC50 (Mu-type opioid receptor [9]): > 32 µM (inactive)
- EC50 [10]: > 32 µM (inactive)
- IC50 [11]: > 32 µM (inactive)
Compound: COc1ccc(CC2(CO)CCN(Cc3nccn3-c3cccc(C)c3)CC2)cc1

- IC50 [23]: 50.4 µM (active)
- EC50 [24]: 7.93 µM (active)
- EC50 [25]: 19.2 µM (active)
- EC50 [26]: 12.5 µM (active)
Compound: Cc1nc2c3ccccc3nc(NNC(=O)CCC(=O)NCCC(C)C)n2n1

Continued, molecule first:

Compound: Oc1cc(O)c2c(c1)OC(c1ccc(O)c(O)c1)C(O)C2 (stereo not drawn)
- IC50 (Large T antigen): 8.64 µM (active)
- IC50 [2]: 24.1 µM (active)
- IC50 [3]: > 100 µM (inactive)
- IC50 [4]: > 100 µM (inactive)

Compound: C=C(C)C(=O)Nc1cccc(C2=NOC3(C2)C[C@@H](C(N)=O)N(C(=O)/C(C)=C/C)C3)c1 (stereo partly drawn)
- IC50 [12]: 17.7 µM (active)
- IC50 [13]: > 50 µM (inactive)
- IC50 [14]: 23.6 µM (not active)
- EC50 [15]: 1.69 µM (active)
- IC50 [16]: 0.54 µM (active)
- IC50 [17]: 1.94 µM (active)
- IC50 [18]: > 66.6 µM (inactive)
- IC50 [19]: 0.869 µM (active)

Compound: COc1cc(/N=c2\ssnc2Cl)c(OC)cc1Cl
- IC50 [20]: 6.24 µM (active)
- IC50 [21]: 3.12 µM (active)
- IC50 (Phosphomannomutase 2): 97.3 µM (active)
- IC50 [22]: 15.2 µM (active)
